According to PMC6744613 (ACS chemical neuroscience, 2018):
Residue numbers refer to the chain shown, from its start. Read-outs that look alike come from different tables or passages of the source.

Columns and labels:
COX-1 [1] = target: T1, COX-1 (Macaca mulatta, UniProt F6S984); experiment: COX-1 whole-blood enzymatic immunoassay; assay type: cell-based; conditions: read-out: IC50 COX-1 Monkey, mean ± SD (n = 3)
T1 sequence (F6S984 25-599): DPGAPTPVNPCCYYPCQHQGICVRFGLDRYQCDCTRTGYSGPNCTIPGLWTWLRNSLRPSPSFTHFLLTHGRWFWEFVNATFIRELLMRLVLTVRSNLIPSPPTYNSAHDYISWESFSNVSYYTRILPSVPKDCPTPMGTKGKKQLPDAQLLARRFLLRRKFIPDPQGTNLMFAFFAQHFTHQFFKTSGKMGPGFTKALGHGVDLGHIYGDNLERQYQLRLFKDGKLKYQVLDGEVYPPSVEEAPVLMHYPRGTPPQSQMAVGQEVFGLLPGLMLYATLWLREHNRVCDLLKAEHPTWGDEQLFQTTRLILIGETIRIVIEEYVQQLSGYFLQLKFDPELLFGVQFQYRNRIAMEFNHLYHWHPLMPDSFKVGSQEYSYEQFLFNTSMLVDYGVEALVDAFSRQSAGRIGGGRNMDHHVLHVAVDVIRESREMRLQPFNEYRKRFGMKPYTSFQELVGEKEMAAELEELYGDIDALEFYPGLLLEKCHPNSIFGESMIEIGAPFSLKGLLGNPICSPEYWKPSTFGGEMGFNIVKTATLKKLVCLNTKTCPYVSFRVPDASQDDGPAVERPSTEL

COX-2 [2] = target: T2, COX-2 (Macaca mulatta, UniProt F7BWZ9); experiment: COX-2 whole-blood enzymatic immunoassay; assay type: cell-based; conditions: read-out: IC50 COX-2 Monkey, mean ± SD (n = 3)
T2 sequence (F7BWZ9 18-604): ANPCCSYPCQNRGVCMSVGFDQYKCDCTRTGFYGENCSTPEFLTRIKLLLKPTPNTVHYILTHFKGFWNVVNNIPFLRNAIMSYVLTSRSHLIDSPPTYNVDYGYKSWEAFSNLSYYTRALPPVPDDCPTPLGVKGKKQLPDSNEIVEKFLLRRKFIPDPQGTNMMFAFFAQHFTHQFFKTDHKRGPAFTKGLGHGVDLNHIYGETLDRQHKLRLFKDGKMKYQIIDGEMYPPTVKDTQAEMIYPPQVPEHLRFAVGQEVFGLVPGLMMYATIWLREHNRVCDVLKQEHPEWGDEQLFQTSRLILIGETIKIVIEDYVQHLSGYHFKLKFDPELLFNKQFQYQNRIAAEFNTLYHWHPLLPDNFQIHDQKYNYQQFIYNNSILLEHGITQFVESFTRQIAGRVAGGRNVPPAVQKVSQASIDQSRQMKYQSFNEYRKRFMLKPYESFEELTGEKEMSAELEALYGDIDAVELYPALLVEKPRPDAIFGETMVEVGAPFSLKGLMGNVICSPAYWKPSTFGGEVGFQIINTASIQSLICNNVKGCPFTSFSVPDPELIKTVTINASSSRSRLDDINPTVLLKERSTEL

human COX-1 = conditions: read-out: IC50 for human COX-1 (reported); human whole blood; cited from earlier work
COX-1 [3] = target: T3, COX-1 (Rattus norvegicus, UniProt Q63921); experiment: COX-1 whole-blood enzymatic immunoassay; assay type: cell-based
T3 sequence (Q63921 27-602): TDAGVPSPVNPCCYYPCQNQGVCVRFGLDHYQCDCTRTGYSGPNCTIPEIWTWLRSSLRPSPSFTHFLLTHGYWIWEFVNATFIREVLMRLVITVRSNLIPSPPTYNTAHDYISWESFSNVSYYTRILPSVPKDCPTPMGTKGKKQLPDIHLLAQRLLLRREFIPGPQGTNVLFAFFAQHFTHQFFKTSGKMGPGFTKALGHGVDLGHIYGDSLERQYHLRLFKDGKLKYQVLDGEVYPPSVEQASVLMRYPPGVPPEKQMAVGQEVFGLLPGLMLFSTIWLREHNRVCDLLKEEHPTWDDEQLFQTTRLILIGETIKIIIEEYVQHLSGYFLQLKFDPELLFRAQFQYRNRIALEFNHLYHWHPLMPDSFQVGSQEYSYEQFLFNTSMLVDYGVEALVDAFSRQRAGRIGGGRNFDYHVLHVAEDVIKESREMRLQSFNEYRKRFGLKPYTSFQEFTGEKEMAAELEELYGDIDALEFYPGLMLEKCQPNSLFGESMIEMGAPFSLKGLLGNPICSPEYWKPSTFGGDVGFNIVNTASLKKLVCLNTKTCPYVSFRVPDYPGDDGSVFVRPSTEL

COX-1 [4] = target: COX-1 (Homo sapiens, UniProt P23219); experiment: COX-1 whole-blood enzymatic immunoassay; assay type: cell-based
Chain of COX-1 (Homo sapiens, UniProt P23219) (P23219 24-599): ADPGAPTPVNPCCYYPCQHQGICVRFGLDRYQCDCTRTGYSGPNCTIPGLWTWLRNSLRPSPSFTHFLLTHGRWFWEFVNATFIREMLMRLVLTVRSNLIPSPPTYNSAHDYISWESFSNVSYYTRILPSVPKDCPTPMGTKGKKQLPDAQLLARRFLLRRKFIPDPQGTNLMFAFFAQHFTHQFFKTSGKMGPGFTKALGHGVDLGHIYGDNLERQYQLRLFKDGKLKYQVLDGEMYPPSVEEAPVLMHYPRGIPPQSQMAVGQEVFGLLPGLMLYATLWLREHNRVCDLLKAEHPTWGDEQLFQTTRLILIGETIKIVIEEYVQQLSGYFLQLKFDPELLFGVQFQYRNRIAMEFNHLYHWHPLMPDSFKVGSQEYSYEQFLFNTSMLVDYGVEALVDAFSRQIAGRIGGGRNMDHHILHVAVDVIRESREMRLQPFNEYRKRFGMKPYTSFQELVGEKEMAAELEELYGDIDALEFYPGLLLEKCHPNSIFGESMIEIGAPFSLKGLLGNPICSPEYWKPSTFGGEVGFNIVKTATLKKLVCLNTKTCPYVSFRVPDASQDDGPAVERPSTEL

COX-2 [5] = target: T4, COX-2 (Homo sapiens, UniProt P35354); experiment: COX-2 whole-blood enzymatic immunoassay; assay type: cell-based
T4 sequence (P35354 18-604): T2 sequence (F7BWZ9 18-604) with Y7H, L49F, V101A, F150L, T163S, K191N, D208A, H211R, N363T, R570G

[6] = read-out: IC50 COX-1 Human, human whole blood, mean ± SD (n = 3)

Row | IC50 (COX-1 [1]) [nM] | IC50 (COX-2 [2]) [nM] | IC50 (COX-1 [3]) [nM] | IC50 (COX-1 [4]) [nM] | IC50 (COX-2 [5]) [nM] | IC50 (COX-1 [4]; [6]) [nM] | IC50 (COX-2 [5]; read-out: IC50 COX-2 Human, human whole blood, mean ± SD (n = 3)) [nM] | SMILES | IC50 (human COX-1) [nM]
1 | 4.6 ± 1.3 | > 1000 |  |  |  |  |  | COc1ccc(-c2nc(OC)nn2-c2ccc(OC)cc2)cc1 [Inhibitor 5] | 4.9
2 | 1 ± 0.3 | > 1000 | 15 |  |  |  |  | COc1ccc(-c2nc(OCC(F)(F)F)nn2-c2ccc(OC)cc2)cc1 [Inhibitor 20, 1,5-Bis(4-methoxyphenyl)-3-(2,2,2-trifluoroethoxy)-1H-1,2,4-triazole] | 
3 | 10 ± 3 |  |  | 2 ± 0.1 | > 1000 |  |  | COc1ccc(-n2nc(C(F)(F)F)nc2-c2ccc(F)nc2)cc1 [Inhibitor 24, 2-Fluoro-5-(1-(4-methoxyphenyl)-3-(trifluoromethyl)-1H-1,2,4-triazol-5-yl)pyridine] | 
4 | 6.4 ± 0.8 |  |  | 5 ± 3.9 | > 1000 |  |  | COc1ccc(-c2nc(SCF)nn2-c2ccc(OC)cc2)cc1 [Inhibitor 26, 3-(Fluoromethylthio)-1,5-bis(4-methoxyphenyl)-1H-1,2,4-triazole] | 
5 | 5 ± 2 | 545 ± 102 |  | 3 ± 1.7 | > 1000 |  |  | COc1ccc(-c2nc([S+]([O-])CF)nn2-c2ccc(OC)cc2)cc1 (stereo not drawn) [Inhibitor 27, 3-(Fluoromethylsulfinyl)-1,5-bis(4-methoxyphenyl)-1H-1,2,4-triazole] | 
6 | 25 ± 3 |  |  | 3 ± 1.2 | > 1000 |  |  | COc1ccc(-c2nc(S(=O)(=O)CF)nn2-c2ccc(OC)cc2)cc1 [Inhibitor 28, 3-(Fluoromethylsulfonyl)-1,5-bis(4-methoxyphenyl)-1H-1,2,4-triazole] | 
7 | 3 ± 2.5 |  |  |  |  | 3 ± 0.06 | > 1000 | COc1ccc(-n2nc(OC)nc2-c2ccccc2)cc1 [Inhibitor 31, 3-Methoxy-1-(4-methoxyphenyl)-5-phenyl-1H-1,2,4-triazole] | 
8 | 100 |  |  | 1.7 ± 0.6 | 100 ± 25 |  |  | COc1ccc(-n2nc(OCF)nc2-c2ccccc2)cc1 [Inhibitor 32, 3-(Fluoromethoxy)-1-(4-methoxyphenyl)-5-phenyl-1H-1,2,4-triazole] | 
9 | > 1000 | 1 ± 0.5 |  |  |  | > 1000 |  | COc1cc(NCc2cccs2)nc(-c2ccc(S(C)(=O)=O)cc2)n1 [Inhibitor 34, [2-(4-Methanesulfonylphenyl)-6-methoxypyrimidin-4-yl]thiophen-2-ylme-thylamine, reference compound] | 

Row | SMILES | IC50 (COX-1 [1]) [nM] | IC50 (COX-2 [2]) [nM] | IC50 (COX-1 [3]) [nM] | IC50 (COX-1 [4]) [nM] | IC50 (COX-2 [5]) [nM] | IC50 (COX-1 [4]; [6]) [nM] | IC50 (COX-2 [5]; read-out: IC50 COX-2 Human, human whole blood, mean ± SD (n = 3)) [nM] | IC50 (human COX-1) [nM]
10 | C[C@H](C(=O)O)c1cccc(C(=O)c2ccccc2)c1 [Inhibitor 4, (S)-ketoprofen, reference compound] | 40 ± 17 | 400 ± 113 |  |  |  |  |  | 
